# From ChEMBL document CHEMBL1201862, “PubChem BioAssay data set” (2004)
# The source made the active and inactive calls.
# Columns and labels:
# [1] = target: Likely tRNA 2'-phosphotransferase (Candida albicans (strain SC5314 / ATCC MYA-2876) (Yeast), UniProt Q5A7N4); assay: inhibition of Candida TPT1 enzyme activity – biochemical, fluorescence polarization, dose response (AID 2160)
# [2] = target: Guanyl-specific ribonuclease T1 (Aspergillus oryzae (strain ATCC 42149 / RIB 40), UniProt P00651); assay: inhibition of ribonuclease T1 activity – biochemical, fluorescence polarization, 1536-well, counter-screen for TPT1 inhibitor project, dose response (AID 2167)
# Sequence of Guanyl-specific ribonuclease T1 (P00651 whole entry): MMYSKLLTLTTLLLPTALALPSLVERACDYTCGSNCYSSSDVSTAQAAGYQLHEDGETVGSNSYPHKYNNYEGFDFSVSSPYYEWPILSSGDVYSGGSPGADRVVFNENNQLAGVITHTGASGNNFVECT
# [3] = target: Bcl-2-like protein 10 (Homo sapiens, UniProt Q9HD36); assay: Bcl-B/TR3 peptide binding disruption – biochemical, fluorescence polarization, FITC-TR3 peptide, selectivity assay for Bfl-1 inhibitor project, primary screen (AID 748);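 further: fluorescence polarization from a fluorescein-labelled TR3 peptide binding purified Bcl-B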
# Sequence of Bcl-2-like protein 10 (Q9HD36 whole entry): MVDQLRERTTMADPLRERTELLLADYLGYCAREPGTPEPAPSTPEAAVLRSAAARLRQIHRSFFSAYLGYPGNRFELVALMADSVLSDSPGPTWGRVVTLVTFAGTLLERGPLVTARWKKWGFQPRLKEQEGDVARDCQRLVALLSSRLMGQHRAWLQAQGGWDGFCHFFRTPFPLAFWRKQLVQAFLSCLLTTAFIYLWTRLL
# [4] = target: T1, Heat shock factor protein 1 (Mus musculus, UniProt P38532); assay: decrease of HSF1-responsive luciferase luminescence – cell-based, NIH3T3, dose retest, confirmation (AID 2382); assay type: functional;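 further: NIH3T3 fibroblasts with HSF1-driven luciferase reporter stressed by proteasome inhibitor MG132; luminescence from HSF1-driven luciferase expression after 8 hours of MG132 stress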
# T1 sequence (P38532 whole entry): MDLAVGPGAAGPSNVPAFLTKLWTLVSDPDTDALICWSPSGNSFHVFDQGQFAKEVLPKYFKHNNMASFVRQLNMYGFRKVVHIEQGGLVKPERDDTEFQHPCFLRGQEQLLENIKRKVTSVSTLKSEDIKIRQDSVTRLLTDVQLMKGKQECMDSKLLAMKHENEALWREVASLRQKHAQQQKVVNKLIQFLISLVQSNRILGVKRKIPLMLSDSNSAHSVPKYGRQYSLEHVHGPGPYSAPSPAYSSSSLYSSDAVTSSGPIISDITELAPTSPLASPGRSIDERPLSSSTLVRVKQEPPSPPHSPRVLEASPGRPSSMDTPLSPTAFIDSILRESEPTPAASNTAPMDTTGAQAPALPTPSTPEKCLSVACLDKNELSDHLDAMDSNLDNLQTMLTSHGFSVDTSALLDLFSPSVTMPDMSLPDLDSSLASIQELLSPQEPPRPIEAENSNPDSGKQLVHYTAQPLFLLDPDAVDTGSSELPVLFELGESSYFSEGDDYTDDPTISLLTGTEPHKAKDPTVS
# [5] = target: Lysosomal acid glucosylceramidase (Homo sapiens, UniProt P04062); assay: Dose response cell-based high throughput screening assay to identify enhancers of beta-glucosidase activity. [Related pubchem assays: 784 ]; assay type: functional
# Sequence of Lysosomal acid glucosylceramidase (P04062 whole entry): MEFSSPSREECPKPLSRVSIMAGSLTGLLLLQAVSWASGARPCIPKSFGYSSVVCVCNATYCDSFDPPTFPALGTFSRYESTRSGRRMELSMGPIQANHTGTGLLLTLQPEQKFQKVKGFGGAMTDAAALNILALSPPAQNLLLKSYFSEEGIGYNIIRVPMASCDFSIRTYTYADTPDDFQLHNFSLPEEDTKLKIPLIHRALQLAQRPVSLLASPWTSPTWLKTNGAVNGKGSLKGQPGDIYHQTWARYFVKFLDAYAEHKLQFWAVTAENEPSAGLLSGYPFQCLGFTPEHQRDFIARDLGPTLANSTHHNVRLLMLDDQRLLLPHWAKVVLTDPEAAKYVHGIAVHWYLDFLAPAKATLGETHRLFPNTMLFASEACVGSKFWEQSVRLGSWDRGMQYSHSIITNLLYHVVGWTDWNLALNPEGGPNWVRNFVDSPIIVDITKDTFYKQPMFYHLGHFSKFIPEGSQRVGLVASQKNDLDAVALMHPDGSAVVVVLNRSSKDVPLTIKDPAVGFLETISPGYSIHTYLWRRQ
# [6] = tested on: INS1; assay: INS-1E survival protection against cytokine death – cell-based, luminescence, retest, dose response (AID 449756); assay type: functional; conditions: Rattus norvegicus;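 further: cell death triggered by IL-1 beta plus TNF-alpha plus IFN-gamma mixture; protective hits raise ATP signal compared with cytokine alone wells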
# [7] = target: T2, Replicative DNA helicase DnaB (Mycobacterium tuberculosis, UniProt P9WMR3); assay: DnaB intein splicing inhibitors, dose response, biochemical, cell-free fluorescence (AID 449749); assay type: functional
# T2 sequence (P9WMR3 whole entry): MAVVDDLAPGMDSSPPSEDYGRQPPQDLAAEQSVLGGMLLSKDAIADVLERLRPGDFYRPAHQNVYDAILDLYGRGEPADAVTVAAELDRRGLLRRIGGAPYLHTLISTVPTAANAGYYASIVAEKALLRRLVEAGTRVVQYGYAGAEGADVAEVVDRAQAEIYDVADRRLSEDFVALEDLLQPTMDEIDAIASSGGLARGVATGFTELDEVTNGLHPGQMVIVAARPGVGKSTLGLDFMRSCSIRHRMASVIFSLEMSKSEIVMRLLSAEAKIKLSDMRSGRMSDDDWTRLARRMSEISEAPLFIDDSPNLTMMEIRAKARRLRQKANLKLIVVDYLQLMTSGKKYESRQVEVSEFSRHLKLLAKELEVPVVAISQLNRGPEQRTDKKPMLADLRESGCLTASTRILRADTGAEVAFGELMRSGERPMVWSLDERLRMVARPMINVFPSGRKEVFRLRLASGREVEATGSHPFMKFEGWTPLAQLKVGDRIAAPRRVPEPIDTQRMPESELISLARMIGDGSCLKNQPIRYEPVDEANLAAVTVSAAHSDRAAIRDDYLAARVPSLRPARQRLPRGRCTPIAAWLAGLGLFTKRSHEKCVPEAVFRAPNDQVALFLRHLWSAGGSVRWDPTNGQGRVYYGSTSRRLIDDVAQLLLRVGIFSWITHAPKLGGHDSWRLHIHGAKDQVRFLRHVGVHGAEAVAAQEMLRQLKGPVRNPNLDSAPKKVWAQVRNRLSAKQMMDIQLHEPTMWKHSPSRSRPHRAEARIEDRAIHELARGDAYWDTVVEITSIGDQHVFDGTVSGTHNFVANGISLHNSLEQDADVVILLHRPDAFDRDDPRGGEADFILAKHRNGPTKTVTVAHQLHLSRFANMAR
# [8] = NIH-3T3 fibroblast cytotoxicity, dose response, cytotoxicity control, cell-based, fluorescence, Alamar Blue, secondary assay (AID 2327); assay type: functional;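 further: NIH-3T3 mouse fibroblasts cultured with fluconazole at 8 µg/mL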
# [9] = target: Transitional endoplasmic reticulum ATPase (Homo sapiens, UniProt P55072, C522A); assay: C522A mutant p97 ATPase inhibitors, dose response, counter-screen for p97 inhibitor project, biochemical, luminescence (AID 1544)
# Sequence of Transitional endoplasmic reticulum ATPase (Homo sapiens, UniProt P55072, C522A) (P55072 2-806 C522A limits assumed): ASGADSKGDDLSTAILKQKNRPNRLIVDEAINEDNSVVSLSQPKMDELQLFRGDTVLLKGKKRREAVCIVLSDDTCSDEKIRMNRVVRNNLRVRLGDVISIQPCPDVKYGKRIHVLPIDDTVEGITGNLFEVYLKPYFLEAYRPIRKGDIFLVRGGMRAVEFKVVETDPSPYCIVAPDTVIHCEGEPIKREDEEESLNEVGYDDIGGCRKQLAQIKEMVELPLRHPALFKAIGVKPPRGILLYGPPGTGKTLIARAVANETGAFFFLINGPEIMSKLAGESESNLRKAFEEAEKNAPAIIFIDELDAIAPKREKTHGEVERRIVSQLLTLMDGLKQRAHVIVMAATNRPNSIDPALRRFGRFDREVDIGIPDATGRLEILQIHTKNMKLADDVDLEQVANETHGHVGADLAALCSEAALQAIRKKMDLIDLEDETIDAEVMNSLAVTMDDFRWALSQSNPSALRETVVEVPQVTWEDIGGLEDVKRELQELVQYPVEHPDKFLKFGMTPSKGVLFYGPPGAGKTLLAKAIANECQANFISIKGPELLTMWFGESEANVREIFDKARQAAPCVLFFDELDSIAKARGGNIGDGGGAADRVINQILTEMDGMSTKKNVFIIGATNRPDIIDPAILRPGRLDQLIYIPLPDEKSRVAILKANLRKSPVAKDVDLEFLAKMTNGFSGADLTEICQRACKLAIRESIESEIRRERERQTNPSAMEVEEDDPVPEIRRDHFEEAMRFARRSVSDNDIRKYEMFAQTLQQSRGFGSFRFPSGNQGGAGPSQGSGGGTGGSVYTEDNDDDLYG
# [10] = target: T3, Ubiquitin-conjugating enzyme E2 N (Homo sapiens, UniProt P61088); assay type: functional
# T3 sequence (P61088 whole entry): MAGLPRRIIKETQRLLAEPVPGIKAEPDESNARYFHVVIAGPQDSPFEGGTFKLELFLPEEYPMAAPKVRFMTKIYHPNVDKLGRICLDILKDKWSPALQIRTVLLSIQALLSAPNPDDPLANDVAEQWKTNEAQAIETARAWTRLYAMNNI
# [11] = target: T3, Ubiquitin-conjugating enzyme E2 N; assay type: functional; remark: listed apart in the source
# [12] = target: T4, CAAX prenyl protease 2 (Saccharomyces cerevisiae S288c, UniProt Q03530); assay type: biochemical
# T4 sequence (Q03530 whole entry): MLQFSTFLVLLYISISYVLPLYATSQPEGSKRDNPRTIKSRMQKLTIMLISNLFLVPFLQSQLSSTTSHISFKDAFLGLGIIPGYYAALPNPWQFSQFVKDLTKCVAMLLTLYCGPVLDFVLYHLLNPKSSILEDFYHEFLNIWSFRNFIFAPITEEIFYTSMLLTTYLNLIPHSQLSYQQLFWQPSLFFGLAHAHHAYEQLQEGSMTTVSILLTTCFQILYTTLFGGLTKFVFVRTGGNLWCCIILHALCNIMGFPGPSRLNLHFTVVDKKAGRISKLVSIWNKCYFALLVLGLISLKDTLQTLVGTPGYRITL
# [13] = target: Transitional endoplasmic reticulum ATPase (Homo sapiens, UniProt P55072); assay: p97 ATPase inhibitors, dose response, biochemical (AID 1534)
# Sequence of Transitional endoplasmic reticulum ATPase (Homo sapiens, UniProt P55072) (P55072 whole entry): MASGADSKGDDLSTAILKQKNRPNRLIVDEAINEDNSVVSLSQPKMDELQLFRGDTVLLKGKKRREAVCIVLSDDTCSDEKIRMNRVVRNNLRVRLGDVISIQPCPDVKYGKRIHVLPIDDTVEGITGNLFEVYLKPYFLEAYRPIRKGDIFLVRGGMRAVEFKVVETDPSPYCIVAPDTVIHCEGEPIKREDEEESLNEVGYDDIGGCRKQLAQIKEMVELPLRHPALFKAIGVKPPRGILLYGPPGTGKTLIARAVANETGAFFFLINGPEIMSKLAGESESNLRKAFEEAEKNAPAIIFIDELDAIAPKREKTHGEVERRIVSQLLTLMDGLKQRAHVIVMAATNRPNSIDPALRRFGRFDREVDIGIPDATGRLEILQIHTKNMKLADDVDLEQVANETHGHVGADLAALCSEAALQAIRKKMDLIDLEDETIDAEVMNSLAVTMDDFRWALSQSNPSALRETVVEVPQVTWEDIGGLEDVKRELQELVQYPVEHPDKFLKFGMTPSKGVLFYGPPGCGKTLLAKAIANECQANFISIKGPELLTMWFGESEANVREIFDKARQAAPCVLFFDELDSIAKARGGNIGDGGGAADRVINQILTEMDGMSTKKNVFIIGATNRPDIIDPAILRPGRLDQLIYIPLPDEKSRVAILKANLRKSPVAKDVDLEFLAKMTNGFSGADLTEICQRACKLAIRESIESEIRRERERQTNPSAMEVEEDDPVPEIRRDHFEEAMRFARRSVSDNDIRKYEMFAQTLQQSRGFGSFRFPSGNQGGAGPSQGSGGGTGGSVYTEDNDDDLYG
# [14] = fluconazole-exposed Candida albicans growth modulators – fluorescence, retest, confirmation (AID 2467); assay type: functional, cell-based
# [15] = target: Trypsin (Sus scrofa, UniProt P00761); assay: trypsin protease activity blockade – biochemical, quenched peptide fluorescence, cherry-pick, selectivity assay for Rce1 protease inhibitor project, dose response (AID 488789)
# Sequence of Trypsin (P00761 whole entry): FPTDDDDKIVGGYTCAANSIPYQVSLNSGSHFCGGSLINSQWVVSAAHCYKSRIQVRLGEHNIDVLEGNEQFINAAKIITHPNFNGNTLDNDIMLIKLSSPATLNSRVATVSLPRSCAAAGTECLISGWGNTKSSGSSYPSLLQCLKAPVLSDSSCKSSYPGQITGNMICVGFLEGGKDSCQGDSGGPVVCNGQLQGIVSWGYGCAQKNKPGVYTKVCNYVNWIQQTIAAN
# [16] = target: T5, Bcl-2-related protein A1 (Mus musculus, UniProt Q07440); assay type: functional;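 further: confirmatory dose–response counterscreen on Bfl-1, used to check hits from a UBC13 polyubiquitin inhibitor campaign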
# T5 sequence (Q07440 whole entry): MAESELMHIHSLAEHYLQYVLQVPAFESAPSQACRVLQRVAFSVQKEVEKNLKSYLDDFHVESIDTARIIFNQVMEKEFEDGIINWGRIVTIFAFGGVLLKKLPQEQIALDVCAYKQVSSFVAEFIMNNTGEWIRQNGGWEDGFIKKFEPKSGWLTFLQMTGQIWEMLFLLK
# [17] = target: T6, Protein RecA (Mycobacterium tuberculosis, UniProt P9WHJ3); assay: Fluorescence Cell-Free Homogeneous Dose Retest to Identify Inhibitors of RecA-Intein Splicing Activity. [Related pubchem assays (depositor defined):AID2097, AID2223, AID489010, AID492950]; assay type: functional
# T6 sequence (P9WHJ3 whole entry): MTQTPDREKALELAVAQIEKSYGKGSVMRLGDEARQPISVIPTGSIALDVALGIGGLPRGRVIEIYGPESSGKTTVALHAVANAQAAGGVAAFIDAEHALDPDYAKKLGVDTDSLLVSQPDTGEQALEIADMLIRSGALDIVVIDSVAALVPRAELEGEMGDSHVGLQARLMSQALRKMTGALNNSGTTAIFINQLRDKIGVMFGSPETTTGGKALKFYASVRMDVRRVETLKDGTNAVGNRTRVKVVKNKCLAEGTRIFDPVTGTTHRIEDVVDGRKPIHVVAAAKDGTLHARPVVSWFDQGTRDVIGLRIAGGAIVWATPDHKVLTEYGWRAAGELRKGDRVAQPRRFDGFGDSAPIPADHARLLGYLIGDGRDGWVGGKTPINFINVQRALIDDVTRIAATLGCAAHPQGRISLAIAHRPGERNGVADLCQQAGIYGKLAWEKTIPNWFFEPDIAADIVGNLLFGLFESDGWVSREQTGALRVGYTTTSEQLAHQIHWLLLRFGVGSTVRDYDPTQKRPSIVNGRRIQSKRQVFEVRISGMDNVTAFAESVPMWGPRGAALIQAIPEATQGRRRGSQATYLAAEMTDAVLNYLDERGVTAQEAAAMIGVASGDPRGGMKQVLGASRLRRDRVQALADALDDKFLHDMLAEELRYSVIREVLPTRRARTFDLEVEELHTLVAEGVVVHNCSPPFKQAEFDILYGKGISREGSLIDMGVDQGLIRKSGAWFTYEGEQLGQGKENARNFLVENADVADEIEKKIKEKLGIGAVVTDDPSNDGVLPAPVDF
# [18] = target: T7, CAAX prenyl protease 2 (Homo sapiens, UniProt Q9Y256); assay: inhibition of Ras-converting CAAX protease Rce1 – biochemical, yeast membranes, quenched-peptide fluorescence, cherry-pick, dose response (AID 588849)
# T7 sequence (Q9Y256 whole entry): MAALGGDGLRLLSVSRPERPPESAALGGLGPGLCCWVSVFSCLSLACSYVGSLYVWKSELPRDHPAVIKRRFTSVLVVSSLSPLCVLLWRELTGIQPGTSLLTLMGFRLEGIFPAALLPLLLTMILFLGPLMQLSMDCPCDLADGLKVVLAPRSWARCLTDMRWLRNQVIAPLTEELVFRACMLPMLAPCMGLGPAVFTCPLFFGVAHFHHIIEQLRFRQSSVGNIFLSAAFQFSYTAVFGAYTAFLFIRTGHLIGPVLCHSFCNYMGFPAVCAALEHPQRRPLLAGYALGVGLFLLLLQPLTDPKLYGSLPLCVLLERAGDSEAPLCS
# [19] = target: Cyclin-dependent kinase 5/CDK5 activator 1 (Homo sapiens, UniProt Q00535); assay: blockade of human CDK5 activity – biochemical, cherry-picked samples, set 2, dose response (AID 504545)
# Sequence of Cyclin-dependent kinase 5/CDK5 activator 1 (Q00535 whole entry): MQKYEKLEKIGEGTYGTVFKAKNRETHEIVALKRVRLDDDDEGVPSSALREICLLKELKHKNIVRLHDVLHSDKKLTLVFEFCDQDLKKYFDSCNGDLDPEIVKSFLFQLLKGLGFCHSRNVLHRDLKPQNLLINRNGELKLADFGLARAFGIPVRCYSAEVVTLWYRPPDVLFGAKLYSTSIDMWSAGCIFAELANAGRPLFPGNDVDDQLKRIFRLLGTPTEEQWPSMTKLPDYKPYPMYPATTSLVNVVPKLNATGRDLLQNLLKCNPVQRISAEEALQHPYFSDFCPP
# Sequence of Cyclin-dependent kinase 5/CDK5 activator 1 (Q15078 whole entry, further chain): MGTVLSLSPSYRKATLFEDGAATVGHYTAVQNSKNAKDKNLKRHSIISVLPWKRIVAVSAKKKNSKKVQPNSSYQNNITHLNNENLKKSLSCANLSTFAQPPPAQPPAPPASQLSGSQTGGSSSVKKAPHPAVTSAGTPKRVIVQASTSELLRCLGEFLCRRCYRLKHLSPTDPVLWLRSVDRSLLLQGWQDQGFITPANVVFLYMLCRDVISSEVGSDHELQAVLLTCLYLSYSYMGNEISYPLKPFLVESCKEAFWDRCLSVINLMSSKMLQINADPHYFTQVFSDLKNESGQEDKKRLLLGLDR
# [20] = target: Voltage-gated N-type calcium channel alpha-1B subunit/Amyloid beta A4 precursor protein-binding family A member 1 (Homo sapiens, UniProt Q00975+Q02410); assay: disruptors of Mint-PDZ/N-type channel peptide interaction – biochemical, HTRF, set 2, SAR follow-up (AID 434980); assay type: functional
# [21] = blockers of SFLLRN-triggered platelet ATP secretion – cell-based, human platelets, luminescence, dry powder, dose response (AID 493100); assay type: functional
# [22] = target: G-protein coupled receptor 35 (Homo sapiens, UniProt Q9HC97); assay: inhibition of zaprinast-stimulated GPR35 beta-arrestin translocation – imaging, U2OS, beta-arrestin-GFP, zaprinast agonist, primary screen (AID 2058); assay type: functional;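 further: antagonist potency meaning inhibition of agonist-induced arrestin redistribution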
# Sequence of G-protein coupled receptor 35 (Q9HC97 whole entry): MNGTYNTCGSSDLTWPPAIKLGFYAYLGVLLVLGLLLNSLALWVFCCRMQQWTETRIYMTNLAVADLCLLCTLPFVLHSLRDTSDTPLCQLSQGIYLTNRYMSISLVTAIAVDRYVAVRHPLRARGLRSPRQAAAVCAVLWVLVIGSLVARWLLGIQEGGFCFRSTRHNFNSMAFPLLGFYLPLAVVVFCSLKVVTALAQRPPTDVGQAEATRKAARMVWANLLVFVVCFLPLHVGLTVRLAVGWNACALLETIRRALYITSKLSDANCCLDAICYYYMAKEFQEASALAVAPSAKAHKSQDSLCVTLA
# [23] = viability of uninfected HEp-2 cells – cell-based, HTS, cytotoxicity control for RSV inhibitor project, dose response (AID 2410); assay type: functional; conditions: human respiratory syncytial virus
# [24] = target: T8, Streptokinase A (Streptococcus pyogenes serotype M1, UniProt P10520); assay: viability-normalized secreted streptokinase activity reduction – plasminogen activation absorbance, OD405, dose response (AID 1914); assay type: functional, Streptococcus pyogenes M1 GAS;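 further: secreted streptokinase activity via plasminogen activation per viability signal from cell pellet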
# T8 sequence (P10520 whole entry): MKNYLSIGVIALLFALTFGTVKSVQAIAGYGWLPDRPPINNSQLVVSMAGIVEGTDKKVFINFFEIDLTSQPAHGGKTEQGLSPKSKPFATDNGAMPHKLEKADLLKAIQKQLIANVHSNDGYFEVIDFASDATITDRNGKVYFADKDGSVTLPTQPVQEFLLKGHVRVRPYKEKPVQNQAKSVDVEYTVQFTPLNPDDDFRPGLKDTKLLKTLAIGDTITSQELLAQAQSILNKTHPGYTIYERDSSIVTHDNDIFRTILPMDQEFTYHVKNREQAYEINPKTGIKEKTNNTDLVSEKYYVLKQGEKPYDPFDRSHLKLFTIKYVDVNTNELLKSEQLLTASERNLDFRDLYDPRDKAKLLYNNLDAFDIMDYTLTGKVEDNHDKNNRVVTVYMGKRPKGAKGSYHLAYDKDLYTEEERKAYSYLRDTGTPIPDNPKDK
# [25] = tested on: Streptococcus; assay: GAS UMAA2166 growth inhibition – luminescence, BacTiterGlo, counter-screen for streptokinase expression inhibitor project, dose response (AID 1915); assay type: functional, organism-based;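 further: potency for reduction of bacterial viability or growth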
# [26] = tested on: Streptococcus sp. 'group A'; assay: Streptococcus pyogenes SK(-)GAS viability under kanamycin – luminescence, BacTiterGlo, confirmation, counter-screen for streptokinase expression inhibitor project, dose response (AID 1900); assay type: functional, organism-based
# Sequence of Likely tRNA 2'-phosphotransferase (Q5A7N4 whole entry): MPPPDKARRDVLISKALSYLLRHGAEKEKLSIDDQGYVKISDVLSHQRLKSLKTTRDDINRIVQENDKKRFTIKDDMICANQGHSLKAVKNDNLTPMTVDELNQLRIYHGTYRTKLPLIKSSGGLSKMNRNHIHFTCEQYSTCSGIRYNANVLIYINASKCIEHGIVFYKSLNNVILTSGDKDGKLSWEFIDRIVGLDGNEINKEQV
structure (smiles),measurement,setting,value
Cc1ccc(OCCn2cccc2/C=C2/C(=O)NC(=O)N(Cc3ccco3)C2=O)cc1,IC50,[1],> 55.7 µM (not active)
same,IC50,[2],> 55.7 µM (not active)
COc1ccc(NC(=O)c2cc(CN3C(=O)c4ccccc4C3=O)ccc2OC)cn1,IC50,[3],> 25 µM (inactive)
same,EC50,[4],> 195 µM (not active)
COc1ccc(OC)c(Nc2nc(-c3sc(N)nc3C)cs2)c1,EC50,[5],> 50 µM (not active)
c1ccc(CNc2nc(NCc3ccccc3)c3ccccc3n2)cc1,AC50,[6],7.6 µM (active)
same,AC50,[7],6.13 µM (active)
same,EC50,[8],> 150 µM (inconclusive)
same,IC50,[9],> 50 µM (not active)
same,IC50,[10],11 µM (active)
same,IC50,[11],19.6 µM (active)
same,AC50,[12],39.5 µM (active)
same,IC50,[13],> 50 µM (not active)
same,EC50,[14],> 38 µM (not active)
same,AC50,[15],13.6 µM (active)
same,IC50,[16],12.4 µM (active)
same,EC50,[17],7.83 µM (active)
same,AC50,[18],9.69 µM (active)
C=CCNC(=O)c1[nH]nc2c1CC(C(C)(C)CC)CC2 (stereo unspecified),AC50,[19],3.18 µM (active)
O=C(c1cc(-c2ccco2)nc2ccccc12)N1CCc2cccnc21,IC50,[20],> 56.8 µM (inactive)
O=C(N/N=C/c1ccc(NC(=O)C(F)(F)F)cc1)C1CCCC1,AC50,[21],22.3 µM (active)
CCOc1ccc(/C=N/NC(=O)Cc2csc(Nc3cccc(C(F)(F)F)c3)n2)cc1,IC50,[22],2.1 µM (active)
same,CC50,[23],12.2 µM (active)
same,EC50,[24],20.1 µM (active)
same,EC50,[25],20.2 µM (active)
same,EC50,[26],8.02 µM (active)
